The results in this text go back to US10233205B2, “Magnetic resonance imaging contrast agent capable of detecting hydrogen peroxide and reducing reactive oxygen species” (Auburn University, priority 2015, dated 2019).

The test system of one data set is H9c2 cells. Nature of the data set: Cytotoxicity, CyQUANT cell number. The arrangement: dose tolerated by H9c2 cells: unit not given here. Type of data set: cell-based. On the procedure:
H9c2 cells were obtained from the American Tissue Type Collection (Manassas, Va., USA) and grown at 37° C. with 95% humidity and 5% CO2. Cells were grown in Dulbecco's modified eagles medium (DMEM) supplemented with 10% fetal bovine serum. Experiments were performed at 70-80% confluence. All experiments were performed in DMEM in the absence of fetal bovine serum. To determine the cytotoxic effects of 1 and 2, the H9c2 cells were exposed to increasing concentrations of these reagents or their vehicle in DMEM for either 4 or 24 h. The cell number was assessed using the CyQUANT Cell Proliferation Assay Kit (Life Technologies Corporation, Carlsbad, Calif.) per manufacturer's instructions. Cell number was expressed as a percentage of that measured for the vehicle-treated cells. Values are expressed as mean and SEM and represent three experiments performed in triplicate.
The toxicity of 3 was tested using H9c2 cells in order to facilitate comparison to that of 1. H9c2 cells were obtained from the American Tissue Type Collection (Manassas, Va., USA) and grown at 37° C. with 95% humidity and 5% CO2. Cells were grown in Dulbecco's modified eagles medium (DMEM) supplemented with 10% fetal bovine serum. Experiments were performed at 70-80% confluence. To determine the cytotoxic effects of 3, H9c2 cells were exposed to increasing concentrations of 3 ([…]) or its vehicle in DMEM for 4 or 24 hr. Cell number was assessed using the CyQUANT Cell Proliferation Assay Kit (Life Technologies Corporation, Carlsbad, Calif.) per manufacturer's instructions. Cell number was expressed as percentage of the vehicle-treated cells. Values are expressed as mean and standard deviation and represent 2-4 experiments performed in triplicate. The bars marked with an * display a significant difference from the vehicle-treated cell number for corresponding time period (p<0.05).

Data set [1] in a line: Superoxide scavenging, hypoxanthine-xanthine oxidase / lucigenin luminescence. Format: biochemical. The following applies: 50 mM Tris-HCl pH 8.0. On the procedure: Superoxide was produced in situ from a reaction between xanthine and xanthine oxidase. The subsequent reaction of the O2^− with lucigenin provided a spectroscopic signal that can be used to provide a qualitative measure of an anti-oxidant's ability to degrade O2^−. The copper/zinc superoxide dismutase isolated from bovine erythrocytes (0.001-100 U/ml, Calbiochem) was used as a positive control. The assay was carried out in a total volume of 1 mL containing 50 mM tris (pH 8.0), hypoxanthine (50 μM), xanthine oxidase (0.005 U/ml, Calbiochem) and dark adapted lucigenin (5 μM) in the presence of a complex (0.1 nM-10 μM) or their vehicle. Reactions were carried out at room temperature and were initiated by the addition of xanthine oxidase to the hypoxanthine-containing solution. Luminescence was measured using a TD-20/20 (Turner Designs) luminometer and expressed as relative light units (RLU). Luminescence was measure for four 10 s integrations after an initial delay of 3 s. The four RLU values were averaged, and each concentration was expressed as a percent of that produced in the presence of vehicle. Each assay data point was performed in duplicate and assays were repeated three times.
Superoxide was generated using a hypoxanthine-xanthine oxidase reaction and detected using the chemiluminescent probe lucigenin. Reactions were carried out in 50 mM Tris-HCl (pH 8.0) containing either 1, 2, or Cu/Zn SOD from bovine erythrocytes (insert). Data for the various concentrations of 1, 2, and SOD are expressed as a percentage of luminescence in the presence of vehicle.
The ability of 3 to degrade superoxide was tested using a standard technique that uses the reaction between xanthine oxidase and xanthine to generate O2^− and a subsequent reaction with the chemiluminescent probe lucigenin to detect it. Reactions were carried out in 50 mM Tris-HCl (pH 8.0). Data for the various concentrations of Mn(II) complex are expressed as a percentage of luminescence in the presence of vehicle.

For the compound `CC#N.O=S(=O)([O-])C(F)(F)F.O=S(=O)([O-])C(F)(F)F.[Mn+2].[O-]c1ccc(O)cc1CN(CCN(Cc1ccccn1)Cc1ccccn1)Cc1ccccn1` [Complex 1, Acetonitrilo(N-(2,5-dihydroxy-benzyl)-N,N′,N′-tris(2-pyridinylmethyl)-1,2-ethanediamine)manganese(II) triflate], the H9c2 cells surviving result in the data set on H9c2 cells (10 μM, 24 h) is “less than 50%”. In the data set on H9c2 cells (4 h), the “concentration without cell death / within error of control” value was determined as 10 µM and the “dose tolerated by H9c2 cells” value is reported as 10. For the same compound, in the data set on H9c2 cells (24 h), the “concentration without impact on H9c2 viability” value is 1.0 µM and the “dose tolerated by H9c2 cells” value is recorded as 1.0. In addition, the “superoxide scavenging” value in data set [1] is “successfully intercepts O2^−”.
Take “cis-Dibromo(N,N′-bis(2,5-dihydroxybenzyl)-N,N′-bis(2-pyridinylmethyl)-1,2-ethanediamine)manganese(II) [Complex 3]”: the “concentration without cell death / within error of control” value in the data set with H9c2 cells (4 h) was determined as 50 µM. For the same compound, the “concentration without impact on H9c2 viability” value in the data set on H9c2 cells (24 h) is 10 µM. For the same compound, the “superoxide scavenging” value in data set [1] was “successfully intercepts O2^−”.
`CC#N.Cc1ccc(O)c(CN(CCN(Cc2ccccn2)Cc2ccccn2)Cc2ccccn2)c1.[Mn+2].[O-][Cl+3]([O-])([O-])[O-].[O-][Cl+3]([O-])([O-])[O-]` [Complex 2, reference compound]: the “dose tolerated by H9c2 cells” value in the data set with H9c2 cells (4 h) is 10. In data set [1], the “superoxide scavenging” value was “successfully intercepts O2^−”.
